Laboratory results from the NIST ThermoML archive (doi:10.1021/je200811n).
± gives the expanded uncertainty stated by the source.

Conditions: Hot wire method

F/C=C/C(F)(F)F [trans-1,3,3,3-tetrafluoropropene]
thermal conductivity (241.66 K, 603 kPa, Liquid): 0.09528 ± 0.001 W/m/K | thermal conductivity (241.9 K, 10355 kPa, Liquid): 0.09967 ± 0.0011 W/m/K | thermal conductivity (241.91 K, 15386 kPa, Liquid): 0.1016 ± 0.0011 W/m/K | thermal conductivity (241.91 K, 20710 kPa, Liquid): 0.1039 ± 0.0011 W/m/K | thermal conductivity (241.94 K, 5328 kPa, Liquid): 0.0974 ± 0.0011 W/m/K | thermal conductivity (242 K, 586 kPa, Liquid): 0.09528 ± 0.001 W/m/K | thermal conductivity (242.02 K, 10375 kPa, Liquid): 0.09936 ± 0.0011 W/m/K | thermal conductivity (242.03 K, 15367 kPa, Liquid): 0.1014 ± 0.0011 W/m/K | thermal conductivity (242.03 K, 20714 kPa, Liquid): 0.1037 ± 0.0011 W/m/K | thermal conductivity (242.06 K, 5339 kPa, Liquid): 0.097 ± 0.0011 W/m/K | thermal conductivity (242.11 K, 624 kPa, Liquid): 0.09501 ± 0.001 W/m/K | thermal conductivity (242.35 K, 15378 kPa, Liquid): 0.1015 ± 0.0011 W/m/K | thermal conductivity (242.36 K, 10375 kPa, Liquid): 0.09945 ± 0.0011 W/m/K | thermal conductivity (242.36 K, 20709 kPa, Liquid): 0.1035 ± 0.0011 W/m/K | thermal conductivity (242.41 K, 5308 kPa, Liquid): 0.09704 ± 0.0011 W/m/K | thermal conductivity (242.47 K, 619 kPa, Liquid): 0.095 ± 0.001 W/m/K | thermal conductivity (242.5 K, 10391 kPa, Liquid): 0.09913 ± 0.0011 W/m/K | thermal conductivity (242.5 K, 15372 kPa, Liquid): 0.1012 ± 0.0011 W/m/K | thermal conductivity (242.5 K, 20712 kPa, Liquid): 0.1034 ± 0.0011 W/m/K | thermal conductivity (242.56 K, 5308 kPa, Liquid): 0.09697 ± 0.0011 W/m/K | thermal conductivity (242.62 K, 642 kPa, Liquid): 0.09474 ± 0.001 W/m/K | thermal conductivity (242.85 K, 10385 kPa, Liquid): 0.09922 ± 0.0011 W/m/K | thermal conductivity (242.85 K, 20701 kPa, Liquid): 0.1032 ± 0.0011 W/m/K | thermal conductivity (242.86 K, 15376 kPa, Liquid): 0.1011 ± 0.0011 W/m/K | thermal conductivity (242.92 K, 5304 kPa, Liquid): 0.09701 ± 0.0011 W/m/K | thermal conductivity (243 K, 622 kPa, Liquid): 0.09406 ± 0.001 W/m/K | thermal conductivity (243.02 K, 15383 kPa, Liquid): 0.1009 ± 0.0011 W/m/K | thermal conductivity (243.02 K, 20695 kPa, Liquid): 0.1029 ± 0.0011 W/m/K | thermal conductivity (243.04 K, 10395 kPa, Liquid): 0.09886 ± 0.0011 W/m/K | thermal conductivity (243.1 K, 5316 kPa, Liquid): 0.09673 ± 0.0011 W/m/K | thermal conductivity (243.15 K, Liquid): 0.09448 ± 0.00058 W/m/K | thermal conductivity (243.17 K, 615 kPa, Liquid): 0.09437 ± 0.001 W/m/K | thermal conductivity (243.39 K, 20699 kPa, Liquid): 0.1032 ± 0.0011 W/m/K | thermal conductivity (243.4 K, 15385 kPa, Liquid): 0.1011 ± 0.0011 W/m/K | thermal conductivity (243.42 K, 10393 kPa, Liquid): 0.09892 ± 0.0011 W/m/K | thermal conductivity (243.49 K, 5327 kPa, Liquid): 0.09667 ± 0.0011 W/m/K | thermal conductivity (243.57 K, 643 kPa, Liquid): 0.09442 ± 0.001 W/m/K | thermal conductivity (243.59 K, 20693 kPa, Liquid): 0.1027 ± 0.0011 W/m/K | thermal conductivity (243.6 K, 15397 kPa, Liquid): 0.1006 ± 0.0011 W/m/K | thermal conductivity (243.63 K, 10402 kPa, Liquid): 0.09852 ± 0.0011 W/m/K | thermal conductivity (243.71 K, 5317 kPa, Liquid): 0.09606 ± 0.001 W/m/K | thermal conductivity (243.79 K, 649 kPa, Liquid): 0.09402 ± 0.001 W/m/K | thermal conductivity (251.51 K, 42 kPa, Gas): 0.01026 ± 0.00036 W/m/K | thermal conductivity (251.52 K, 63 kPa, Gas): 0.01037 ± 0.00036 W/m/K | thermal conductivity (251.54 K, 86 kPa, Gas): 0.01039 ± 0.00036 W/m/K | thermal conductivity (251.74 K, 41 kPa, Gas): 0.01015 ± 0.00035 W/m/K | thermal conductivity (251.76 K, 63 kPa, Gas): 0.01019 ± 0.00035 W/m/K | thermal conductivity (251.77 K, 86 kPa, Gas): 0.01024 ± 0.00036 W/m/K | thermal conductivity (251.78 K, 87 kPa, Gas): 0.01029 ± 0.00036 W/m/K | thermal conductivity (251.97 K, 87 kPa, Gas): 0.01006 ± 0.00035 W/m/K | thermal conductivity (252 K, 41 kPa, Gas): 0.01005 ± 0.00035 W/m/K | thermal conductivity (252 K, 62 kPa, Gas): 0.01009 ± 0.00035 W/m/K | thermal conductivity (252 K, 88 kPa, Gas): 0.01003 ± 0.00035 W/m/K | thermal conductivity (252.01 K, 86 kPa, Gas): 0.01018 ± 0.00035 W/m/K | thermal conductivity (252.02 K, 63 kPa, Gas): 0.01 ± 0.00035 W/m/K | thermal conductivity (252.03 K, 87 kPa, Gas): 0.01018 ± 0.00035 W/m/K | thermal conductivity (252.31 K, 87 kPa, Gas): 0.01004 ± 0.00035 W/m/K | thermal conductivity (252.33 K, 88 kPa, Gas): 0.01011 ± 0.00035 W/m/K | thermal conductivity (252.36 K, 63 kPa, Gas): 0.01014 ± 0.00035 W/m/K | thermal conductivity (252.65 K, 86 kPa, Gas): 0.01016 ± 0.00035 W/m/K | thermal conductivity (252.67 K, 87 kPa, Gas): 0.01008 ± 0.00035 W/m/K | thermal conductivity (252.73 K, 63 kPa, Gas): 0.01019 ± 0.00035 W/m/K | thermal conductivity (253.03 K, 86 kPa, Gas): 0.01015 ± 0.00035 W/m/K | thermal conductivity (253.07 K, 87 kPa, Gas): 0.01011 ± 0.00035 W/m/K | thermal conductivity (253.13 K, 63 kPa, Gas): 0.01017 ± 0.00035 W/m/K | thermal conductivity (253.15 K, Liquid): 0.09063 ± 0.00056 W/m/K | thermal conductivity (253.46 K, 86 kPa, Gas): 0.01017 ± 0.00035 W/m/K | thermal conductivity (253.48 K, 87 kPa, Gas): 0.01016 ± 0.00035 W/m/K | thermal conductivity (253.56 K, 62 kPa, Gas): 0.01022 ± 0.00036 W/m/K | thermal conductivity (261.25 K, 97 kPa, Gas): 0.0104 ± 0.0004 W/m/K | thermal conductivity (261.43 K, 21238 kPa, Liquid): 0.09804 ± 0.0011 W/m/K | thermal conductivity (261.44 K, 15456 kPa, Liquid): 0.09523 ± 0.001 W/m/K | thermal conductivity (261.45 K, 97 kPa, Gas): 0.01036 ± 0.00036 W/m/K | thermal conductivity (261.47 K, 10413 kPa, Liquid): 0.09305 ± 0.001 W/m/K | thermal conductivity (261.48 K, 489 kPa, Liquid): 0.08806 ± 0.00097 W/m/K | thermal conductivity (261.5 K, 80 kPa, Gas): 0.01109 ± 0.00038 W/m/K | thermal conductivity (261.5 K, 5306 kPa, Liquid): 0.09055 ± 0.00099 W/m/K | thermal conductivity (261.51 K, 21243 kPa, Liquid): 0.09768 ± 0.0011 W/m/K | thermal conductivity (261.52 K, 15449 kPa, Liquid): 0.09503 ± 0.001 W/m/K | thermal conductivity (261.55 K, 97 kPa, Gas): 0.01112 ± 0.00038 W/m/K | thermal conductivity (261.55 K, 10410 kPa, Liquid): 0.09274 ± 0.001 W/m/K | thermal conductivity (261.56 K, 107 kPa, Gas): 0.0112 ± 0.0004 W/m/K | thermal conductivity (261.56 K, 489 kPa, Liquid): 0.0878 ± 0.00096 W/m/K | thermal conductivity (261.57 K, 122 kPa, Gas): 0.01124 ± 0.00039 W/m/K | thermal conductivity (261.58 K, 5302 kPa, Liquid): 0.09026 ± 0.00099 W/m/K | thermal conductivity (261.64 K, 98 kPa, Gas): 0.01034 ± 0.00036 W/m/K | thermal conductivity (261.73 K, 80 kPa, Gas): 0.01096 ± 0.00038 W/m/K | thermal conductivity (261.77 K, 97 kPa, Gas): 0.01098 ± 0.00038 W/m/K | thermal conductivity (261.78 K, 105 kPa, Gas): 0.01104 ± 0.00038 W/m/K | thermal conductivity (261.79 K, 120 kPa, Gas): 0.01105 ± 0.00038 W/m/K | thermal conductivity (261.83 K, 21233 kPa, Liquid): 0.09783 ± 0.0011 W/m/K | thermal conductivity (261.85 K, 15453 kPa, Liquid): 0.09507 ± 0.001 W/m/K | thermal conductivity (261.86 K, 98 kPa, Gas): 0.01037 ± 0.00036 W/m/K | thermal conductivity (261.88 K, 10404 kPa, Liquid): 0.09272 ± 0.001 W/m/K | thermal conductivity (261.91 K, 489 kPa, Liquid): 0.08776 ± 0.00096 W/m/K | thermal conductivity (261.93 K, 5298 kPa, Liquid): 0.09023 ± 0.00099 W/m/K | thermal conductivity (261.93 K, 21227 kPa, Liquid): 0.09748 ± 0.0011 W/m/K | thermal conductivity (261.96 K, 80 kPa, Gas): 0.01086 ± 0.00038 W/m/K | thermal conductivity (261.96 K, 128 kPa, Gas): 0.01078 ± 0.00037 W/m/K | thermal conductivity (261.96 K, 15453 kPa, Liquid): 0.09468 ± 0.001 W/m/K | thermal conductivity (261.97 K, 82 kPa, Gas): 0.01083 ± 0.00037 W/m/K | thermal conductivity (261.97 K, 112 kPa, Gas): 0.01074 ± 0.00037 W/m/K | thermal conductivity (261.98 K, 99 kPa, Gas): 0.01077 ± 0.00037 W/m/K | thermal conductivity (262 K, 98 kPa, Gas): 0.01084 ± 0.00037 W/m/K | thermal conductivity (262 K, 10412 kPa, Liquid): 0.0925 ± 0.001 W/m/K | thermal conductivity (262.01 K, 97 kPa, Gas): 0.0109 ± 0.0004 W/m/K | thermal conductivity (262.02 K, 103 kPa, Gas): 0.01092 ± 0.00038 W/m/K | thermal conductivity (262.03 K, 118 kPa, Gas): 0.01094 ± 0.00038 W/m/K | thermal conductivity (262.03 K, 488 kPa, Liquid): 0.08756 ± 0.00096 W/m/K | thermal conductivity (262.04 K, 5301 kPa, Liquid): 0.08998 ± 0.00098 W/m/K | thermal conductivity (262.09 K, 98 kPa, Gas): 0.01037 ± 0.00036 W/m/K | thermal conductivity (262.29 K, 109 kPa, Gas): 0.01076 ± 0.00037 W/m/K | thermal conductivity (262.29 K, 21229 kPa, Liquid): 0.09748 ± 0.0011 W/m/K | thermal conductivity (262.3 K, 81 kPa, Gas): 0.01082 ± 0.00037 W/m/K | thermal conductivity (262.3 K, 98 kPa, Gas): 0.01082 ± 0.00037 W/m/K
